Results taken from patent US6677311B1, “Inducible HSV-TK in transformed cell populations” (priority 1988, dated 2004).

Tests used:
[1] = tested on: rat fibroblast cell line #3B; test: Cell growth assay, HSV1-TK expressing 3B cells; type: cell-based
Description: To examine the effect on cellular DNA replication, the rat fibroblast cell line #3B (see Pfahl, et al. Proc. UCLA Symp. Conf. Steroid Hormone Action, ed. Ringold, G. (Liss, N.Y.), Vol. 75:161-168 (1987) that stably expresses the glucocorticoid inducible MTV-HSV1-TK gene, was used. Addition of Dex to these cells leads to a 50-fold increase in HSV1-TK activity. The effect of the drugs on the 3B cells was compared to the one obtained on the control rat 208 fibroblast cell line (see Quade, K. (1979) in Virology, 98:461-465 (1979), a cell line not expressing HSV1-TK). The experiments were performed by seeding cells at low density (3×10^4) in Dulbecco media containing 10% FCS. Cells were incubated with varying concentrations of drug placed in the media 12 hours after the cells were plated either in the presence or in the absence of 10^−7 M Dexamethasone. After a total period of 72 hours, viable cells were recognized by Trypan blue exclusion. Cell numbers were determined with a Neubauer Hemocytometer. The efficacy of the drugs was monitored as reduction in the total number of viable cells.

spleen and thymus = test: FIAU cell killing in KHTK transgenic mice (miniosmotic pump); type: in vivo, mouse
Method: Furthermore, to test if the protein was biologically active, a TK assay [See Fyfe et al., J. Biol. Chem. 253:8721-8727 (1978)] was performed on extracts from these tissues. […] To evaluate the efficacy of the system in vivo, an experiment was performed in which transgenic and non-transgenic littermates were implanted subcutaneously with a miniosmotic pump (model 2002, Alzet, Alza Corp., Palo Alto, Calif.). Transgenic and nontransgenic littermates were then treated for one week with a 50 mg/ml solution of FIAU in PBS released by the Miniosmotic pump. FIAU was chosen because it was most efficient in blocking the DNA replication in vitro. The dose was calculated to obtain serum levels of the drug shown to be effective in cell culture. The animals were sacrificed one week after the pump was implanted. […] In the transgenic mouse, most organs were also normal with the dramatic exception of the spleen and thymus which were visually atrophied.

COS cells = test: Inhibition of plasmid replication in cotransfected COS cells expressing HSV1-TK; type: cell-based, monkey; conditions: 10 μM drug; for reduction of total plasmid copy number (pSV2CAT) relative to no drug treatment: COS cells cotransfected with pSV2CAT, pApS1 (MTV-HSV1-TK), pRShGR, Dex 10^-7 M, 36 h; for decrease of replication of PRShGR': same cotransfection, similar to pSV2CAT
Method: The possibility was tested that HSVI-TK expressed from a transfected plasmid could metabolize anti-herpetic nucleosides to substrates capable of being metabolized by a cellular DNA polymerase. In principle, the incorporation of these activated drugs should lead to a net decrease in cellular DNA replication. Accordingly, a plasmid capable of replicating in COS cells [monkey kidney cells which express T antigen (Tag); See Gluzman, Y. in Cell, 23:175-182 (1981)], namely pSV2CAT (See FIG. 1a; a plasmid that contains the Simian virus 40 promoter region linked to the chloramphenicol acetyltransferase (CAT) gene; See Gorman, et al. in Mol. Cell. Biol., 2:1044-1051(1982)) was cotransfected with a plasmid, pApSI (a plasmid that contains the mouse mammary tumor virus long terminal repeat (MTV-LTR) linked to the HSV1-TK gene; See Chandler, et al., in Cell, 33:489-499 (1983)), expressing HSV1-TK gene under the control of the glucocorticoid inducible promoter of the mouse mammary tumor virus (MTV) (see FIG. 1a). Here, the expression of TK is dependent on both the presence of glucocorticoids, such as the synthetic dexamethasone (Dex), and the glucocorticoid receptor which activate the MTV-promoter in the presence of Dex. For this reason, a human glucocorticoid receptor (hGR) expression vector, PRShGR' (a human glucocorticoid receptor (hGR) expression vector that contains the Rous sarcoma virus long terminal repeat (RSV-LTR) linked to the human glucocorticoid receptor; See Giguere, et al., in Cell, 46:645-652 (1986)), was also cotransfected to insure high levels of this transacting factor. PRShGR' itself contains the origin of replication of SV40 and therefore is able to replicate in COS cells.
Semi-confluent COS cells were cotransfected by the calcium phosphate technique (See Graham, F. L. and van der Eb, A. J., Virology, 52:456-467 (1973) with 1 μg of pSV2CAT, 5 μg of pApS1 and 1 μg of pRShGR' and analyzed 36 hours later. The effect of ACV or FIAU on the replication of pSV2CAT was monitored by the reduction in the number of molecules of this plasmid as compared to a similar experiment conducted in the absence of these drugs. The cells were grown in Dulbecco media containing 5% FCS. Before each experiment, Dex, at a concentration of 10^−7 M, was added. Where the nucleoside analogs were tested, either ACV or FIAU was added to the media at a concentration of 10 μM. When the cells were trypsinized and washed after 24 hours, and then replaced, the new media contained the same concentration of Dex and ACV or FIAU as before. 12 hours later the cells were harvested and plasmid DNA was recovered. The plasmids were recovered from the transfected cells by the method of Hirt (see J. Mol. Biol., 26:365-269 (1967)). […]

[2] = transgenic mouse, 50 mg/ml FIAU in PBS by miniosmotic pump, one week

Row | Structure (SMILES) | reduction of viability ([1]; 0.1 μM FIAU) | cell death ([1]; 3.0 μM FIAU, in the absence of severe non-specific toxicity) | autopsy findings in control mouse (spleen and thymus; nontransgenic littermate, one week of FIAU treatment) | reduction of the cell number in the spleen (spleen and thymus; [2]) | reduction of the cell number in the thymus (spleen and thymus; [2]) | reduction of total plasmid copy number (pSV2CAT) relative to no drug treatment (COS cells) | decrease of replication of PRShGR' (COS cells) | cell death ([1]; 3.0 μM ACV, 3B cells in the presence of Dex, 72 h) | cell death ([1]; 10 μM ACV, 3B cells in the presence of Dex) | toxicity independent of the presence or absence of Dex ([1]; 100 μM ACV) | cell death ([1]; 100 μM ACV, 3B cells in the presence of Dex) | effect on number of viable cells ([1]; 0.1 to 1.0 μM, 72 h)
1 | O=c1[nH]c(=O)n([C@H]2O[C@H](CO)[C@@H](O)[C@@H]2F)cc1I [FIAU, 1-(2-deoxy-2-fluoro-a-D-arabinofuranosil)-5-iodouracil] | more than 60% | 98% | no apparent toxic effects | 57% | 83% | 70% | 70% | – | – | – | – | –
2 | Nc1nc2c(ncn2COCCO)c(=O)[nH]1 [ACV, 9-[(2-hydroxyethoxy)methyl]guanine] | – | – | – | – | – | 40% | 40% | 20% | 60% | non-specific toxicity | 98% | no effect
